From patent US11028074B2, “CD73 inhibitors” (Eli Lilly and Company, priority 2018, dated 2021)
Values belong to the compound of their own block, whether it stands above or below them.

How the values were obtained:
[1] = target: T1, CD73 (Homo sapiens, UniProt P21589); test: LC/MS Based Assay for Measuring CD73 Activity in Human Serum; format: biochemical; set-up: from tissue; host or cells: normal human serum; conditions: concentrations corrected with the fraction unbound, read-out: EC50, inhibition of CD73 activity in human serum
T1 sequence (P21589 27-549): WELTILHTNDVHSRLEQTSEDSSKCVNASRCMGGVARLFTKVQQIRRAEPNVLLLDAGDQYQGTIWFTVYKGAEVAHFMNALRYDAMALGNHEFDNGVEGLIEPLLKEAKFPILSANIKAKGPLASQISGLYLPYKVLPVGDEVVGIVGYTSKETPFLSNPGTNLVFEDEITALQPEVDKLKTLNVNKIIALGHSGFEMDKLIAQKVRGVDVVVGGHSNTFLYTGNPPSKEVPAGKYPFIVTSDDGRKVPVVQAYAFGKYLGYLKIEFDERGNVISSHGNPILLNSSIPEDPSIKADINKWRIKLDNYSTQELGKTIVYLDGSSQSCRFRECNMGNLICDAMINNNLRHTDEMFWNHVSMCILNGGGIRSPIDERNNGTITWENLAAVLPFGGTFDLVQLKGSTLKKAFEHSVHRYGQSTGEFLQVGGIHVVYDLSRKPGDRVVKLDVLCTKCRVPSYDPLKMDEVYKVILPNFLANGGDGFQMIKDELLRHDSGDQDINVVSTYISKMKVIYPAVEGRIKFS
Method: Fresh normal human blood is centrifuged at 1,500 g for 15 minutes at room temperature, and the upper fraction containing serum is collected. […] After incubation on ice for 60 min, […] (50 uM) is added to each well in the plate, and the plate is incubated at room temperature for 15 min. The plate is then placed on dry ice with addition of 200 uL/well of 17.3 TCA followed by shaking at 26 fps for 3 min with a plate-shaking machine (Qiagen). The plate is then centrifuged at 2940 g for 20 min at 4° C. […] After further centrifugation at 2940 g for 20 min at 4° C., 200 ul/well of the supernatant is used for analysis of ^13C10-^15N5-adenosine, ^13C10-^15N5-inosine and ^15N5-hypoxanthine by LC/MS as described above. For EC50 calculations, the concentrations of the CD73 inhibitor in the serum are corrected with the fraction unbound (%) derived from in silico models or experimentally.

[2] = system: CD4^+ T cells; test: Cytokine Analysis (ELISA); format: cell-based, human
Method: CFSE labeled human PBMCs (600,000 cells/mL) or CD4 cells (500,000 cells/mL) are mixed with Dynabeads® Human T-Activator CD3/CD28 (Gibco, cat #11131D) at a ratio of 1:1 of cell/beads and human IL-2 (60 IU/ml, Roche, cat #: 11011456001). Cells are placed in a 37° C. water bath for 10 min to pre-activate T cells. PBMCs (125 μl/well) or CD4 cells (100 μl/well) are transferred to a 96 well plate (Costar 3799, Corning Inc.). To test compounds using PBMCs, test compounds at various concentrations are prepared in cell normal growth media (125 μL) containing 400-600 μM AMP. To test compounds using CD4 cells, test compounds at various concentrations are prepared in cell normal growth media (100 μL) containing 200-250 μM AMP. Treated cells are cultured at 37° C., 5% CO2 for 68-70 hr.
Medium (160 μl) containing treated PBMCs is transferred to a plate and the remaining medium used for cytokine assay is transferred to AcroPrep 96 plates (AcroPrep 96 Filter plate, Omega 3K NTRL 350 ul well, Pall Life Science Cat #8033) for preparation of samples for LC-MS analysis of metabolites.
Culture medium from treated PBMCs is diluted at 1:7.5, 1:2.5 and 1:50 with 1× ELISA/ELISPOT Diluent from cytokine ELISA kits and analyzed for TNFα using Human TNF alpha ELISA Ready-SET-GO! Kit (eBioscience cat #88-7346-22), IL-1β using Human IL-1β ELISA ready-SET-GO! Kit (2nd generation) (eBioscience, cat #88-7261-22) and IFNγ using Human IFN gamma ELISA ready-SET-GO! Kit (eBioscience, cat #88-7316-22) based manufacturer's manuals.

[3] = target: T2, murine CD73 (Mus musculus, UniProt Q61503); test: Ex Vivo Target Inhibition Assay (mouse whole blood after oral dosing); format: in vivo; conditions: read-out: Inhibition of AMP conversion to adenosine, Inhibition (%)
T2 construct: from tissue; host or cells: mouse whole blood (heparin) from orally dosed animals
T2 sequence (Q61503 29-551): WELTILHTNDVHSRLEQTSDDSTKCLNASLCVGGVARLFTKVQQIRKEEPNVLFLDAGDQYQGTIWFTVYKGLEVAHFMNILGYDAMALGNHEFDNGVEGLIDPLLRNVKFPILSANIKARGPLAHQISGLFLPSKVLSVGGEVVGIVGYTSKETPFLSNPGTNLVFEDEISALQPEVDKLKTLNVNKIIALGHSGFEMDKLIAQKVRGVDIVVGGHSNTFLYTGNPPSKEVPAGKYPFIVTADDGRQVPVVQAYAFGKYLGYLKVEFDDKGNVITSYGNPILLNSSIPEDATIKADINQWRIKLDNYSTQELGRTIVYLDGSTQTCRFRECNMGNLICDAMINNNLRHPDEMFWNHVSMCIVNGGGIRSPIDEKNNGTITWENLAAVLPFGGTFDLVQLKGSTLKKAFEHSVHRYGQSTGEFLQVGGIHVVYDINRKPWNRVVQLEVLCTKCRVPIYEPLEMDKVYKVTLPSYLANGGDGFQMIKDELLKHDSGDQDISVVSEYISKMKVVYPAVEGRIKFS
Method: The animals (6/group) are dosed orally with each compound formulated in 20% HPBCD (2-hydroxypropyl-β-cyclodextrin), pH 2 after tumors reach to approximately 400 mm^3.

[4] = system: human PBMCs or CD4 cells; test: T Cell Suppression Assay (rescue of adenosine-mediated inhibition of T cell proliferation); format: cell-based; conditions: for Rescue of T cell proliferation (%): AMP in medium, 68-70 hr
Method: Cells are placed in a 37° C. water bath for 10 min to pre-activate T cells. […] To test compounds using PBMCs, test compounds at various concentrations are prepared in cell normal growth media (125 μL) containing 400-600 μM AMP. […] Treated cells are cultured at 37° C., 5% CO2 for 68-70 hr.
Medium (100 μl) containing CD4 cells is transferred to and filtered through AcroPrep plates to another plate via centrifugation at 1500 g for 2 hr. Filtered medium (50 μl/well) is mixed with the same volume of 80% methanol, 1% NH4OH, and internal standards (250 ng/mL ^13C5-AMP and 250 ng/mL ^13C5-Adenosine) for LC-MS analysis of metabolites.
Treated PBMCs or CD4 cells are collected and stained for Flow Cytometry to quantify T cell proliferation.
Flow data are acquired by BD FACS Verse. Each fluorescence channel is appropriately compensated. The data are processed on FloJo ver. 7.6.5 with the following gating strategy: lymphocytes gated on FSC vs SSC dot plot; viable cells of lymphocytes gated on SSC vs Zombie Aqua dot plot; CD3 cells of viable lymphocytes gated on APC-Cy7 vs Zombie Aqua dot plot1; CD4 cell and CD8 cells of CD3 cells gated on APC vs Pacific Blue dot plot; CD4 and CD8 cells further gated on APC vs CFSE(FITC) and Pacific Blue vs CFSE(FITC) dot plots. Proliferation of CD4 and CD8 cells is analyzed by a proliferation tool.

Structure (SMILES): O=c1[nH]cc(-c2cc([C@H]3CC3(F)F)c(Cl)nn2)c(=O)[nH]1 (single isomer, unassigned) [Example 9]
EC50 [1]: 297 nM

Structure (SMILES): Cc1nnc(-c2c[nH]c(=O)[nH]c2=O)cc1[C@H]1C[C@@H]1C(C)C [Example 2, 5-[5-[(1S,2R)-2-isopropylcyclopropyl]-6-methyl-pyridazin-3-yl]-1H-pyrimidine-2,4-dione]
INF-γ release, INF-γ ([2]; compound 0.003 uM): 34.5 pg/mL
TNF-α release, TNF-α ([2]; compound 0.003 uM): 386.3 pg/mL
INF-γ release, INF-γ ([2]; compound 0.008 uM): 29.5 pg/mL
TNF-α release, TNF-α ([2]; compound 0.008 uM): 419.9 pg/mL
INF-γ release, INF-γ ([2]; compound 0.025 uM): 51.1 pg/mL
TNF-α release, TNF-α ([2]; compound 0.025 uM): 557.8 pg/mL
INF-γ release, INF-γ ([2]; compound 0.074 uM): 59.4 pg/mL
TNF-α release, TNF-α ([2]; compound 0.074 uM): 782.0 pg/mL
INF-γ release, INF-γ ([2]; compound 0.222 uM): 146.7 pg/mL
TNF-α release, TNF-α ([2]; compound 0.222 uM): 1265.5 pg/mL
INF-γ release, INF-γ ([2]; compound 2.000 uM): 99.5 pg/mL
TNF-α release, TNF-α ([2]; compound 2.000 uM): 1183.9 pg/mL
INF-γ release, INF-γ ([2]; compound 6.000 uM): 105.3 pg/mL
TNF-α release, TNF-α ([2]; compound 6.000 uM): 1985.5 pg/mL
inhibition at 1 mg/kg ([3]; 1 mg/kg oral): -10.6%
inhibition at 2.5 mg/kg ([3]; 2.5 mg/kg oral): 25.2%
inhibition at 6.4 mg/kg ([3]; 6.4 mg/kg oral): 37%
inhibition at 16 mg/kg ([3]; 16 mg/kg oral): 56.5%
inhibition at 40 mg/kg ([3]; 40 mg/kg oral): 88.6%
inhibition at 100 mg/kg ([3]; 100 mg/kg oral): 94.3%
Adenosine (uM) in the growth medium ([4]; compound 0.00229 uM): 0.28 µM
Rescue of T cell proliferation (%) ([4]; compound 0.00229 uM): −6%
Adenosine (uM) in the growth medium ([4]; compound 0.00686 uM): 0.28 µM
Rescue of T cell proliferation (%) ([4]; compound 0.00686 uM): −3%
Adenosine (uM) in the growth medium ([4]; compound 0.02058 uM): 0.21 µM
Rescue of T cell proliferation (%) ([4]; compound 0.02058 uM): −2%
Adenosine (uM) in the growth medium ([4]; compound 0.06173 uM): 0.15 µM
Rescue of T cell proliferation (%) ([4]; compound 0.06173 uM): 37%
Adenosine (uM) in the growth medium ([4]; compound 0.18519 uM): 0.086 µM
Rescue of T cell proliferation (%) ([4]; compound 0.18519 uM): 95%
Adenosine (uM) in the growth medium ([4]; compound 0.55556 uM): 0.046 µM
Rescue of T cell proliferation (%) ([4]; compound 0.55556 uM): 104%
Adenosine (uM) in the growth medium ([4]; compound 1.66667 uM): 0.027 µM
Rescue of T cell proliferation (%) ([4]; compound 1.66667 uM): 106%
Adenosine (uM) in the growth medium ([4]; compound 5.00 uM): 0.017 µM
Rescue of T cell proliferation (%) ([4]; compound 5.00 uM): 107%

Structure (SMILES): CC(C)[C@H]1C[C@@H]1c1cc(-c2c[nH]c(=O)[nH]c2=O)nnc1Cl (relative stereo) [Example 8, 5-[6-Chloro-5-[rel-(1S,2R)-2-isopropylcyclopropyl]pyridazin-3-yl]-1H-pyrimidine-2,4-dione]
EC50 [1]: 179 nM

Continued by falling EC50 [1], values first:

EC50 [1]: 212 nM
Structure (SMILES): CC[C@H]1C[C@@H]1c1cc(-c2c[nH]c(=O)[nH]c2=O)nnc1C#N [Example 22, 6-(2,4-Dioxo-1H-pyrimidin-5-yl)-4-[(1S,2S)-2-ethylcyclopropyl]pyridazine-3-carbonitrile]

EC50 [1]: 55 nM
Structure (SMILES): O=c1[nH]cc(-c2cc([C@H]3C[C@@H]3C(F)F)c(Cl)nn2)c(=O)[nH]1 [Example 10, 5-[6-Chloro-5-[(1S,2S)-2-(difluoromethyl)cyclopropyl]pyridazin-3-yl]-1H-pyrimidine-2,4-dione]
